Like-named read-outs stand apart in the source and are kept apart here.
How the values were obtained:
SYK = SYK (Homo sapiens (Human), UniProt P43405); assay: Tm-Shift assay (thermal melting, SYPRO Orange); format: binding;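 note: recombinant His-tagged protein made in Sf9 insect cells by baculovirus, in HEPES NaCl buffer, heated stepwise with fluorescence recorded at every temperature step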
CAMK1D [1] = target: T1, CAMK1D (Homo sapiens (Human), UniProt Q8IU85); assay: Tm-Shift assay (thermal melting, SYPRO Orange); format: binding; conditions: for ΔTm at 10 µM: read-out: CAMK1d Tm-Shift; for CAMK1d Tm-Shift: compound 10 μM, protein 2 μM, ΔTm obs vs protein without ligand, triplicate
CAMK1D [2] = target: T1, CAMK1D; assay: Biochemical CaMK1D enzymatic activity assay (ADP-Glo Kinase Assay); conditions: 3 nM CaMK1D, 1 μM Calmodulin, […] Autocamtide-2, 10 μM ATP, 25C, 2 hours
[3] = compound 10 μM, protein 2 μM, ΔTm obs vs protein without ligand, triplicate

SMILES	SYK Tm-Shift (SYK; [3]) [°C]	ΔTm at 10 µM (CAMK1D [1]) [°C]	SYK Tm-Shift (SYK) [°C]	CAMK1d Tm-Shift (CAMK1D [1]) [°C]	IC50 (CAMK1D [2]) [nM]
COC(=O)c1cc(Nc2nc(N3CCC[C@H](N)C3)ncc2C(N)=O)cc(C(C)(C)C#N)c1 [Example 45, Methyl (S)-3-((2-(3-aminopiperidin-1-yl)-5-carbamoylpyrimidin-4-yl)amino)-5-(2-cyanopropan-2-yl)benzoate]	4.6	12.6	–	–	–
CC(C)(C)c1cc(Nc2nc(N3CCC[C@H](N)C3)ncc2C(N)=O)cc(S(=O)(=O)N2CCOCC2)c1 [Example 104, (S)-2-(3-aminopiperidin-1-yl)-4-((3-(tert-butyl)-5-(morpholinosulfonyl)phenyl)amino) pyrimidine-5-carboxamide]	–	–	0.9	11.5	–
NC(=O)c1cnc(N2CCC[C@H](N)C2)nc1Nc1cc(-c2ccccc2)c2cn[nH]c2c1 [Example 60, (S)-2-(3-aminopiperidin-1-yl)-4-((4-phenyl-1H-indazol-6-yl)amino)pyrimidine-5-carboxamide]	–	9.9	–	–	10
Cc1ccc(Nc2nc(N3CCC[C@H](N)C3)ncc2C(N)=O)cc1S(=O)(=O)N1CCCCC1 [Example 6, (S)-2-(3-aminopiperidin-1-yl)-4-((4-methyl-3-(piperidin-1-ylsulfonyl)phenyl)amino) pyrimidine-5-carboxamide]	–	–	3.3	9.9	–
CS(=O)(=O)c1cc(Nc2nc(N3CCC[C@H](N)C3)ncc2C(N)=O)cc(S(C)(=O)=O)c1.Cl [Example 9, (S)-2-(3-aminopiperidin-1-yl)-4-((3,5-bis(methylsulfonyl)phenyl)amino)pyrimidine-5-carboxamide hydrochloride]	–	10.1	0.2	–	–
CNS(=O)(=O)c1cc(Nc2nc(Cl)ncc2C(N)=O)cc(C(F)(F)F)c1 [Example 108, 2-chloro-4-((3-(N-methylsulfamoyl)-5-(trifluoromethyl)phenyl)amino)pyrimidine-5-carboxamide]	0.3	10.7	–	–	–
Cc1ccccc1-c1cc(Nc2nc(N3CCC[C@H](N)C3)ncc2C(N)=O)cc(C(=O)N2CCOCC2)c1 [Example 44, (S)-2-(3-aminopiperidin-1-yl)-4-((2′-methyl-5-(morpholine-4-carbonyl)-[1,1′-biphenyl]-3-yl)amino)pyrimidine-5-carboxamide]	−0.3	10.9	–	–	–
CC(C)(C)c1cc(Nc2nc(N3CCC[C@H](N)C3)ncc2C(N)=O)cc(S(=O)(=O)N2CCCC2)c1 [Example 103, (S)-2-(3-aminopiperidin-1-yl)-4-((3-(tert-butyl)-5-(pyrrolidin-1-ylsulfonyl)phenyl)amino)pyrimidine-5-carboxamide]	0.7	12.2	–	–	–
CC1(C)COCCN1C(=O)c1cc(Nc2nc(N3CCC[C@H](N)C3)ncc2C(N)=O)cc(C(F)(F)F)c1 [Example 32, (S)-2-(3-aminopiperidin-1-yl)-4-((3-(3,3-dimethylmorpholine-4-carbonyl)-5-(trifluoromethyl)phenyl)amino)pyrimidine-5-carboxamide]	2.1	11.2	–	–	–
CN(C)CCN(C)C(=O)c1cccc(Nc2nc(N3CCC[C@H](N)C3)ncc2C(N)=O)c1 [Example 25, (S)-2-(3-aminopiperidin-1-yl)-4-((3-((2-(dimethylamino)ethyl)(methyl)carbamoyl)phenyl)amino) pyrimidine-5-carboxamide]	–	–	0.7	8.1	–
CC(C)(C)c1cc(Nc2nc(N3CCC[C@H](N)C3)ncc2C(N)=O)cc(C(=O)N2CCCC2)c1 [Example 28, (S)-2-(3-aminopiperidin-1-yl)-4-((3-(tert-butyl)-5-(pyrrolidine-1-carbonyl)phenyl)amino)pyrimidine-5-carboxamide]	0.5	11.8	–	–	–
CC1(C)COCCN1C(=O)c1cccc(Nc2nc(N3CCC[C@H](N)C3)ncc2C(N)=O)c1 [Example 30, (S)-2-(3-aminopiperidin-1-yl)-4-((3-(3,3-dimethylmorpholine-4-carbonyl)phenyl)amino) pyrimidine-5-carboxamide]	–	–	2.0	9.5	–

From patent publication US11530193B2, “Kinase inhibitors” (The University of Manchester, priority 2018, dated 2022)
